The numbers were not newly measured in article PMC12648288, “Drastic Impact of Donor Substituents on Xanthenes in the PDT of Glioblastoma” (JACS Au, 2025), which cites them from elsewhere.

For data set [1] the following is noted: cited from earlier work.
The test system of the next data set is U87MG. As to conditions: cited from earlier work; for IC50: 32 (SI list).
The next data set concerns T98G. As to conditions: ref 28 (SI list); cited from earlier work.
Another data set has as its system SNB-19. Set-up: method as in ref 11 (SI list). To be noted: ref 11 (SI list); cited from earlier work.
Another data set relates to F98. To be noted: 31 (SI list); cited from earlier work.
For data set [2] the following is noted: in MeOH, as fraction; cited from earlier work.
A further data set deals with HUVEC. Set-up: method as in ref 16 (SI list). To be noted: ref 16 (SI list); cited from earlier work.
A further data set has as its system DBTRG-05. Set-up: method as in ref 29 (SI list). As to conditions: ref 29 (SI list); cited from earlier work.
The next data set relates to A172. The arrangement: method as in ref 29 (SI list). As to conditions: ref 29 (SI list); cited from earlier work.
Where [3] appears, read: measured in PBS (pH 7.4), 22-32 (SI list).

Like-named read-outs stand apart in the source and are kept apart here. No end group written: not given here. TPC = chlorin-type photosensitizer; Ahx = NCCCCCC(=O)O

For the molecule `CN(C)c1ccc2cc3ccc(N(C)C)cc3nc2c1` [Acridine Orange], the “Abs (nm)” value in data set [1] (setting [3]) is 487 nm.
In the case of `COc1c(CC(C)O)c2c3c(CC(C)O)c(OC)c(=O)c4c(O)cc5c(c6c(cc(O)c(c1=O)c62)OCO5)c43` (centres unmarked) [Cercosporin], the LD50 with U87MG (ref 28 (SI list)) and in the data set on T98G was 4 µM in each case. Besides, in data set [1] (setting [3]), the “Abs (nm)” value is recorded as 473 nm.
As for `COc1cc(/C=C/C(=O)CC(=O)/C=C/c2ccc(O)c(OC)c2)ccc1O` [Curcumin (CUR), Curcumin], in the data set with SNB-19, the IC50 is 5.74 µM.
On to `CCCCCCOC(C)c1c(C)c2cc3nc(c4c5[nH]c(cc6nc(cc1[nH]2)C(C)=C6CC)c(C)c5C(=O)C4)C(CCC(=O)Nc1ccc(SC2=C(C=CC4=[N+](CCCCS(=O)(=O)[O-])c5ccc6ccccc6c5C4(C)C)CCCC2=CC=C2N(CCCCS(=O)(=O)[O-])c4ccc5ccccc5c4C2(C)C)cc1)C3C.[Na+]` (centres unmarked) [HPPH-CD], for which the concentration for half-maximal inhibition (IC50) with U87MG is 1.63 µM. The “Abs (nm)” value in data set [1] (setting [3]) is 848 nm.
On to `C=Cc1c(C)c2cc3nc(cc4nc(cc5[nH]c(cc1[nH]2)c(C)c5C(C)OC(C)c1c(C)c2cc5[nH]c(cc6nc(cc7nc(cc1[nH]2)C(C)=C7CCC(=O)[O-])C(CCC(=O)[O-])=C6C)c(C)c5C=C)C(C)=C4CCC(=O)[O-])C(CCC(=O)[O-])=C3C.[Na+].[Na+].[Na+].[Na+]` (centres unmarked) [Sinoporphyrin sodium (DVDMS), Sinoporphyrin sodium], for which the “Abs (nm)” value in data set [1] (setting [3]) is given as 631 nm.
Turning to `Cc1ccnc(-c2cc(C)ccn2)c1.Cc1ccnc(-c2cc(C)ccn2)c1.[Cl-].[Cl-].[Ru+2].c1csc(-c2ccc(-c3ccc(-c4nc5c6cccnc6c6ncccc6c5[nH]4)s3)s2)c1` [TLD1433], the IC50 in the data set with U87MG is 0.051 µM; with F98, 2.81 µM. Besides, the “Abs (nm)” value in [1] (setting [3]) is recorded as 416 nm.
For `[Zn+2].c1ccc2c(c1)-c1nc-2nc2[n-]c(nc3nc([n-]c4nc(n1)-c1ccccc1-4)-c1ccccc1-3)c1ccccc21` [ZnPc], the “Abs (nm)” value in data set [1] (setting [3]) is on record as 645 nm.
With `CN(C)c1ccc2nc3ccc(=[N+](C)C)cc-3sc2c1` [methylene blue], the “ΦF of reference standard” value in data set [2] is reported as 0.23.
With “Benzoporphyrin derivative [Benzoporphyrin derivative (BPD)]”, in the data set on U87MG, the IC50 was 13.1 µM. The “Abs (nm)” value in data set [1] (setting [3]) is on record as 692 nm.
For “TPC–Ahx–ATWLPPR: chlorin-type photosensitizer conjugated to neuropilin-1 targeting peptide (SI ref 16) ({TPC-Ahx}-ATWLPPR)”, in data set [1] (EtOH, 16 (SI list)), the “Abs (nm)” value is 420 nm. For the same molecule, the 50% inhibitory concentration (IC50) in the data set on HUVEC is 171 µM.
On to “Tetrahydroporphyrin-Tetratosylat [THPTS]”, for which the IC30 is 2 µM in the data set with U87MG (ref 29 (SI list)), 4 µM in the data set on DBTRG-05 and 10 µM with A172. In addition, the “Abs (nm)” value in data set [1] (setting [3]) is on record as 760 nm.
As to [(Ph2phen)2Os(dpp)]2+, the “Abs (nm)” value in data set [1] (setting [3]) is recorded as 650 nm. Also, the IC50 in the data set with F98 is 86.1 µM.

The term IC50 denotes the concentration needed to halve the response being measured. Broadly, the IC30 is the concentration at which the effect reaches the 30% level.
